Values quoted from earlier work as cited in patent publication US20090104212A1, “METHODS AND SYSTEMS FOR TREATING CELL PROLIFERATION DISORDERS USING TWO-PHOTON SIMULTANEOUS ABSORPTION” (Immunolight, priority 2007, published 2009).
Like-named read-outs stand apart in the source and are kept apart here. Non-standard residues stand in square brackets, D forms with d. Residues, ends and D or L forms follow the SMILES beside them. Bpa = N[CH](Cc1ccc(C(=O)c2ccccc2)cc1)C(=O)O; 2Nal = N[CH](Cc1ccc2ccccc2c1)C(=O)O; Aib = CC(C)(N)C(=O)O

How the values were obtained:
[1] = system: tumors; details: in vivo
[2] = for kSET (Average): average over Λex 224, 266, 280 nm

Structure (SMILES) | duration of skin photosensitivity (clinical use) [h] | Length of photosensitization (in vivo) [h] | selectivity for tumors compared to normal tissues [1] | kSET (Average) [2] [s⁻¹] | ESSET ([2]; Λex 224 nm) | kSET ([2]; Λex 224 nm) [s⁻¹] | ESSET ([2]; Λex 266 nm) | kSET ([2]; Λex 266 nm) [s⁻¹] | ESSET ([2]; Λex 280 nm) | kSET ([2]; Λex 280 nm) [s⁻¹]
CC(=O)[O-].CC(=O)[O-].CCc1c(CC)c2cc3nc(cnc4cc(OCCOCCOCCOC)c(OCCOCCOCCOC)cc4ncc4nc(cc1[n-]2)C(CCCO)=C4C)C(C)=C3CCCO.O.[Lu+3] [Lutetium texahyrin, Motexafin lutetium] | 24 to 48 | 24 to 48 | one of the greatest reported selectivities for tumors |  |  |  |  |  |  | 
CC(NC(=O)C(C)(C)NC(=O)C(Cc1ccc(C(=O)c2ccccc2)cc1)NC(=O)C(C)(C)NC(=O)C(Cc1ccc2ccccc2c1)NC(=O)C(C)(C)NC(=O)C(C)NC(=O)C(C)(C)N)C(=O)O (single isomer, unassigned) [Compound 2B] |  |  |  | 3.9e+07 | 77 | 3.1e+07 | 81 | 3.9e+07 | 83 | 4.7e+07
CC(NC(=O)C(C)(C)NC(=O)C(Cc1ccc(C(=O)c2ccccc2)cc1)NC(=O)C(C)(C)NC(=O)C(C)NC(=O)C(C)(C)NC(=O)C(Cc1ccc2ccccc2c1)NC(=O)C(C)(C)N)C(=O)O (centres unmarked) [Compound 1B] (H-[Aib][2Nal][Aib]A[Aib][Bpa][Aib]A-OH; configuration not given here) |  |  |  |  | 96.3 | 2.44e+08 | 95 | 1.8e+08 | 94 | 1.36e+08
CC1NC(=O)C(C)(C)NC(=O)C(Cc2ccc(C(=O)c3ccccc3)cc2)NC(=O)C(C)(C)NC(=O)C(C)NC(=O)C(C)(C)NC(=O)C(Cc2ccc3ccccc3c2)NC(=O)C(C)(C)NC1=O (centres unmarked) [Compound 1A] (cyclo([Aib][2Nal][Aib]A[Aib][Bpa][Aib]A); configuration not given here) |  |  |  | 3.67e+07 | 80 | 3.8e+07 | 79 | 3.6e+07 | 79 | 3.6e+07
